Source: patent publication US20250282799A1, “SUBSTITUTED PYRIDO[4,3-d]PYRIMIDINES AS KRAS MODULATORS” (Alterome Therapeutics, Inc., priority 2023, published 2025)

Tested on: KRAS G12V dependent lung adenocarcinoma cell line, NCI-H441
Assay: Cellular pERK (Thr202/Tyr204) FRET/HTRF assay
Format: cell-based
Settings: Homo sapiens, NCI-H441, cellular pERK (Thr202/Tyr204) HTRF, NCI-H441 cells
In short: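 IC50 reflects inhibition of ERK1/2 Thr202/Tyr204 phosphorylation, quantified by HTRF after a 1 hr treatment of KRAS G12V-driven NCI-H441 cells. DMSO served as negative control.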

Q: Which IC50 does the source give for [2H]C([2H])(Oc1nc(N2CCOC[C@H]3[C@H](F)[C@H]32)c2cnc(-c3cc(N)c(F)c(C)c3C(F)(F)F)c(F)c2n1)[C@@]12CCCN1C[C@H](F)C2 [Example 167, 2-Fluoro-5-(8-fluoro-4-((1S,7S,8S)-8-fluoro-5-oxa-2-azabicyclo[5.1.0]octan-2-yl)-2-(((2R,7aS)-2-fluorotetrahydro-1H-pyrrolizin-7a(5H)-yl)methoxy-d2)pyrido[4,3-d]pyrimidin-7-yl)-3-methyl-4-(trifluoromethyl) aniline] here?
A: < 50 nM

Q: For [2H]C([2H])(F)Oc1c(F)ccc2cc(N)cc(-c3ncc4c(N5CCOC[C@H]6[C@H](F)[C@H]65)nc(OC([2H])([2H])[C@@]56CCCN5C[C@H](F)C6)nc4c3F)c12 [Example 116, 6-Fluoro-4-(8-fluoro-4-((1S,7S,8S)-8-fluoro-5-oxa-2-azabicyclo[5.1.0]octan-2-yl)-2-(((2R,7aS)-2-fluorotetrahydro-1H-pyrrolizin-7a(5H)-yl)methoxy-d2)pyrido[4,3-d]pyrimidin-7-yl)-5-(fluoromethoxy-d2)naphthalen-2-amine], which IC50 is on record?
A: < 50 nM

Q: How did the IC50 turn out when [2H]C([2H])(Oc1nc(N2CCOC[C@H]3[C@H](F)[C@H]32)c2cnc(-c3cc(N)cc4ccc(Cl)c(C#C)c34)c(F)c2n1)[C@@]12CCCN1[C@H](C)[C@H](F)C2 [Example 337, 6-chloro-5-ethynyl-4-(8-fluoro-2-(((2R,3R,7aS)-2-fluoro-3-methyltetrahydro-1H-pyrrolizin-7a(5H)-yl)methoxy-d2)-4-((1S,7S,8S)-8-fluoro-5-oxa-2-azabicyclo[5.1.0]octan-2-yl)pyrido[4,3-d]pyrimidin-7-yl)naphthalen-2-amine] was run?
A: < 50 nM

Q: C#Cc1c(F)ccc2cc(N)cc(-c3ncc4c(N5CCOC[C@H]6[C@H](F)[C@H]65)nc(OC[C@@]56CC[C@H](C)N5C[C@H](F)C6)nc4c3F)c12 [Example 259, 5-Ethynyl-6-fluoro-4-(8-fluoro-2-(((2R,5S,7aS)-2-fluoro-5-methyltetrahydro-1H-pyrrolizin-7a(5H)-yl)methoxy)-4-((1S,7S,8S)-8-fluoro-5-oxa-2-azabicyclo[5.1.0]octan-2-yl)pyrido[4,3-d]pyrimidin-7-yl)naphthalen-2-amine] was tested. Which IC50 did it give?
A: < 50 nM

Q: How did the IC50 turn out when Cc1c(F)c(N)cc(-c2ncc3c(N4CCCC[C@H]5[C@H](F)[C@H]54)nc(OC[C@@]45CCCN4C/C(=C\F)C5)nc3c2F)c1C(F)(F)F [Example 398, 2-fluoro-5-(8-fluoro-4-((1S,7R,8S)-8-fluoro-2-azabicyclo[5.1.0]octan-2-yl)-2-(((S,Z)-2-(fluoromethylene)tetrahydro-1H-pyrrolizin-7a(5H)-yl)methoxy)pyrido[4,3-d]pyrimidin-7-yl)-3-methyl-4-(trifluoromethyl)aniline] was run?
A: 50 to 500 nM

Q: Which IC50 does the source give for [2H]C([2H])(Oc1nc(N2CCOC[C@H]3[C@H](F)[C@H]32)c2cc(Cl)c(-c3cc(N)c(F)c(C)c3C(F)(F)F)c(F)c2n1)[C@@]12CCCN1C[C@H](F)C2 [Example 190, 5-(6-chloro-8-fluoro-4-((1S,7S,8S)-8-fluoro-5-oxa-2-azabicyclo[5.1.0]octan-2-yl)-2-(((2R,7aS)-2-fluorotetrahydro-1H-pyrrolizin-7a(5H)-yl)methoxy-d2)quinazolin-7-yl)-2-fluoro-3-methyl-4-(trifluoromethyl)aniline] here?
A: 50 to 500 nM

Q: With [2H]C([2H])(Oc1nc(N2CCOC[C@H]3[C@H](F)[C@H]32)c2cnc(-c3cc(N)cc4ccc(F)c(C#C)c34)c(F)c2n1)[C@@]12CCCN1C[C@]1(C[C@@H]1F)C2 (single isomer, unassigned) [Example 313] as the compound, how does the IC50 read?
A: < 50 nM

Q: How did the IC50 turn out when C#Cc1c(F)ccc2cc(N)cc(-c3ncc4c(N5CCOC[C@H]6[C@H](F)[C@H]65)nc(OC[C@]56C[C@@]7(C[C@@H]7F)CN5CCC65CC5)nc4c3F)c12 (single isomer, unassigned) [Example 234] was run?
A: < 50 nM

Q: For [2H]C([2H])(F)Oc1c(F)ccc2cc(N)cc(-c3ncc4c(N5CCOC[C@H]6[C@H](F)[C@H]65)nc(OC[C@]56C/C(=C\F)CN5CCC65CC5)nc4c3F)c12 [Example 388, 6-fluoro-4-(8-fluoro-4-((1S,7S,8S)-8-fluoro-5-oxa-2-azabicyclo[5.1.0]octan-2-yl)-2-(((R,E)-6′-(fluoromethylene)tetrahydrospiro[cyclopropane-1,1′-pyrrolizin]-7a′(5′H)-yl)methoxy)pyrido[4,3-d]pyrimidin-7-yl)-5-(fluoromethoxy-d2)naphthalen-2-amine], which IC50 is on record?
A: < 50 nM

Same assay, conditions: Homo sapiens, NCI-H441, cellular pERK HTRF, NCI-H441 (KRAS G12V) cells

Q: How did the IC50 turn out when [2H]C([2H])(Oc1nc(N2CCOC[C@H]3[C@H](F)[C@H]32)c2cnc(-c3cc(O)cc4ccc(F)c(C#C)c34)c(C)c2n1)[C@]12CC(=C)CN1CCC21CC1 [Example 448, 5-Ethynyl-6-fluoro-4-(4-((1S,7S,8S)-8-fluoro-5-oxa-2-azabicyclo[5.1.0]octan-2-yl)-8-methyl-2-(((R)-6′-methylenetetrahydrospiro[cyclopropane-1,1′-pyrrolizin]-7a′(5′H)-yl)methoxy-d2)pyrido[4,3-d]pyrimidin-7-yl)naphthalen-2-ol] was run?
A: < 50 nM

Q: [2H]C([2H])(Oc1nc(N2CCOC[C@H]3[C@H](F)[C@H]32)c2cnc(-c3cc(O)cc4ccc(F)c(C#C)c34)c(C)c2n1)[C@@]12CCCN1C[C@H](F)C2 [Example 445, 5-Ethynyl-6-fluoro-4-(4-((1S,7S,8S)-8-fluoro-5-oxa-2-azabicyclo[5.1.0]octan-2-yl)-2-(((2R,7aS)-2-fluorotetrahydro-1H-pyrrolizin-7a(5H)-yl)methoxy-d2)-8-methylpyrido[4,3-d]pyrimidin-7-yl)naphthalen-2-ol] was tested. Which IC50 did it give?
A: < 50 nM

Same assay, conditions: Homo sapiens, NCI-H441, pERK HTRF, NCI-H441 cells (KRAS G12V)

Q: How did the IC50 turn out when [2H]C([2H])(Oc1nc(N2CCCCC[C@H]3[C@H](F)[C@H]32)c2cnc(-c3cc(N)cc4cc(F)c(F)c(C#C)c34)c(F)c2n1)[C@@]12CCCN1C[C@H](F)C2 [Example 60, 5-Ethynyl-6,7-difluoro-4-(8-fluoro-4-((1S,8R,9S)-9-fluoro-2-azabicyclo[6.1.0]nonan-2-yl)-2-(((2R,7aS)-2-fluorotetrahydro-1H-pyrrolizin-7a(5H)-yl)methoxy-d2)pyrido[4,3-d]pyrimidin-7-yl)naphthalen-2-amine] was run?
A: < 50 nM

Q: [2H]C([2H])(Oc1nc(N2CCC[C@H]3C[C@H]32)c2cnc(-c3cc(N)cc4cc(F)c(F)c(C#C)c34)c(F)c2n1)[C@@]12CCCN1C[C@H](F)C2 [Example 52, 4-(4-((1R,6S)-2-azabicyclo[4.1.0]heptan-2-yl)-8-fluoro-2-(((2R,7aS)-2-fluorotetrahydro-1H-pyrrolizin-7a(5H)-yl)methoxy-d2)pyrido[4,3-d]pyrimidin-7-yl)-5-ethynyl-6,7-difluoronaphthalen-2-amine] was tested. Which IC50 did it give?
A: 50 to 500 nM

Q: With [2H]C([2H])(Oc1nc(N2CCCO[C@@H]3[C@@H](F)[C@@H]32)c2cnc(-c3cc(N)cc4cc(F)c(F)c(C#C)c34)c(F)c2n1)[C@@]12CCCN1C[C@H](F)C2 [Example 23, 5-Ethynyl-6,7-difluoro-4-(8-fluoro-4-((1S,7R,8S)-8-fluoro-2-oxa-6-azabicyclo[5.1.0]octan-6-yl)-2-(((2R,7aS)-2-fluorotetrahydro-1H-pyrrolizin-7a(5H)-yl)methoxy-d2)pyrido[4,3-d]pyrimidin-7-yl)naphthalen-2-amine] as the compound, how does the IC50 read?
A: 500 to 10000 nM

Q: How did the IC50 turn out when [2H]C([2H])(Oc1nc(N2CCCC[C@H]3[C@H](F)[C@H]32)c2cnc(-c3cccc4ccc(F)c(OCF)c34)c(F)c2n1)[C@@]12CCCN1C[C@H](F)C2 [Example 73, 8-Fluoro-7-(7-fluoro-8-(fluoromethoxy)naphthalen-1-yl)-4-((1S,7R,8S)-8-fluoro-2-azabicyclo[5.1.0]octan-2-yl)-2-(((2R,7aS)-2-fluorotetrahydro-1H-pyrrolizin-7a(5H)-yl)methoxy-d2)pyrido[4,3-d]pyrimidine] was run?
A: < 50 nM

Q: Which IC50 does the source give for [2H]C([2H])(Oc1nc(N2CCCO[C@@H]3C[C@@H]32)c2cnc(-c3ccc(F)c4sc(N)c(C#N)c34)c(F)c2n1)[C@@]12CCCN1C[C@H](F)C2 [Example 40, 4-(4-((1R,7S)-2-Oxa-6-azabicyclo[5.1.0]octan-6-yl)-8-fluoro-2-(((2R,7aS)-2-fluorotetrahydro-1H-pyrrolizin-7a(5H)-yl)methoxy-d2)pyrido[4,3-d]pyrimidin-7-yl)-2-amino-7-fluorobenzo[b]thiophene-3-carbonitrile] here?
A: 500 to 10000 nM

Q: For [2H]C([2H])(Oc1nc(N2CCC[C@H]3[C@H](F)[C@H]32)c2cnc(-c3cc(N)cc4cc(F)c(F)c(C#C)c34)c(F)c2n1)[C@@]12CCCN1C[C@H](F)C2 [Example 54, 5-Ethynyl-6,7-difluoro-4-(8-fluoro-4-((1S,6R,7S)-7-fluoro-2-azabicyclo[4.1.0]heptan-2-yl)-2-(((2R,7aS)-2-fluorotetrahydro-1H-pyrrolizin-7a(5H)-yl)methoxy-d2)pyrido[4,3-d]pyrimidin-7-yl)naphthalen-2-amine], which IC50 is on record?
A: < 50 nM

Q: [2H]C([2H])(Oc1nc(N2CCCC[C@H]3[C@H](F)[C@H]32)c2cnc(-c3cccc4cc(F)c(F)c(C#C)c34)c(F)c2n1)[C@@]12CCCN1C[C@H](F)C2 [Example 79, 7-(8-Ethynyl-6,7-difluoronaphthalen-1-yl)-8-fluoro-4-((1S,7R,8S)-8-fluoro-2-azabicyclo[5.1.0]octan-2-yl)-2-(((2R,7aS)-2-fluorotetrahydro-1H-pyrrolizin-7a(5H)-yl)methoxy-d2)pyrido[4,3-d]pyrimidine] was tested. Which IC50 did it give?
A: < 50 nM

Same assay, conditions: cellular pERK HTRF, NCI-H441 (KRAS G12V) cells

Q: With N#Cc1c(N)sc2c(F)ccc(-c3c(C(F)(F)F)cc4c(N5CCOC[C@H]6[C@H](F)[C@H]65)nc(OC[C@@]56CCCN5CC(=C(F)F)C6)nc4c3F)c12 (atropisomer, axis not shown) [Example 438, 2-amino-4-((R)-2-(((S)-2-(difluoromethylene)tetrahydro-1H-pyrrolizin-7a(5H)-yl)methoxy)-8-fluoro-4-((1S,7S,8S)-8-fluoro-5-oxa-2-azabicyclo[5.1.0]octan-2-yl)-6-(trifluoromethyl)quinazolin-7-yl)-7-fluorobenzo[b]thiophene-3-carbonitrile] as the compound, how does the IC50 read?
A: 500 to 10000 nM
